Source: US11629171B2, “Beta-hairpin peptidomimetics” (POLYPHOR AG, priority 2017, dated 2023)
Converted amounts (≈) assume the structure as drawn. Where a SMILES comes first, the peptide text is derived from it. Bridges are numbered along the chain shown (N, C = ends). Roman numbers before positions name the chains, in order. [ ]: non-standard residue; d: D form. The star is where a group is joined. Tle = CC(C)(C)[C@H](N)C(=O)O; Hiv = CC(C)[C@H](O)C(=O)O; dDab = NCC[C@@H](N)C(=O)O; hSer = N[C@@H](CCO)C(=O)O; NHCH(CH2OH)2 = OCC(CO)N*; Orn = NCCC[C@H](N)C(=O)O; Dab = NCC[C@H](N)C(=O)O; Dap = NC[C@H](N)C(=O)O

Experiments:
Type in all cases: cell-based
[1] = test system: Acinetobacter baumannii 872842; conditions: 872842
In short: (§1)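 Peptides are tested in serial two-fold dilutions against about 10^6 CFU/mL in MH-II broth containing 0.002% P-80 (v/v, final). Plates incubate 18-20 h at 35° C, and the MIC is the lowest peptide level (μg/mL) showing no visible growth.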

[2] = test system: Klebsiella pneumoniae 968733; conditions: 968733
In short: as §1

[3] = test system: Pseudomonas aeruginosa ATCC 27853; conditions: ATCC 27853
In short: as §1

[4] = test system: Enterobacter cloacae 848840; conditions: 848840
In short: as §1

[5] = test system: Acinetobacter baumannii DSM 30008; conditions: DSM 30008
In short: as §1

[6] = test system: Escherichia coli ATCC 25922; conditions: ATCC 25922
In short: as §1

Escherichia coli 926415 = conditions: 926415
In short: as §1

[7] = test system: Klebsiella pneumoniae SSI #3010; conditions: SSI #3010
In short: as §1

[8] = test system: human red blood cells (hRBC); test: Hemolysis; conditions: red cells of human, 1 h, 200
In short: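 Percent hemolysis relative to 2% Triton X-100 (100%) and PBS/10% water (0%), from blank-corrected OD540 of diluted supernatants. Peptides tested at 200 μg/mL against 20% (v/v) washed human erythrocytes, 1 h, 37° C, shaking at 300 rpm.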

Compound	MIC [1] [µg/mL]	MIC [2] [µg/mL]	MIC [3] [µg/mL]	MIC [4] [µg/mL]	MIC [5] [µg/mL]	MIC [6] [µg/mL]	MIC (Escherichia coli 926415) [µg/mL]	MIC [7] [µg/mL]	Hemolysis at 200 μg/mL [8] [%]
CC(C)C[C@@H]1NC(=O)[C@@H](CC(C)C)NC(=O)[C@H](CCN)NC(=O)[C@@H](NC(=O)[C@H](CN)NC(=O)[C@@H](NC(=O)[C@H](CCN)NC(=O)CC[C@H]2NC(=O)[C@H](CCCN)NC(=O)[C@H](CCN)NC(=O)[C@H](Cc3ccc(O)cc3)NC(=O)[C@@H](NC(=O)[C@@H](O)C(C)C)CSSC[C@@H](C(=O)NC(CO)CO)NC(=O)[C@H](C(C)(C)C)NC(=O)[C@H](CO)NC(=O)[C@H](Cc3c[nH]c4ccccc34)NC(=O)[C@H]([C@@H](C)O)NC2=O)[C@@H](C)O)CCNC(=O)[C@H]([C@@H](C)O)NC(=O)[C@H](CCN)NC(=O)[C@H](CCN)NC1=O [Ex. 163] (I: H-[Hiv]CY[Dab][Orn][dE]TWS[Tle]C-{NHCH(CH2OH)2} / II: [Dab]T[Dap][Dab][Dab][dL]L[Dab][Dab]T; disulfide I:2-I:11; amide I:6-II:N; lactam II:4-II:C)	0.25 (≈ 0.105 µM)	0.5 (≈ 0.209 µM)	0.25 (≈ 0.105 µM)	4 (≈ 1.68 µM)	0.125 (≈ 0.0524 µM)	0.125 (≈ 0.0524 µM)	0.5 (≈ 0.209 µM)	0.25 (≈ 0.105 µM)	1
CC(C)C[C@@H]1NC(=O)[C@H](CCN)NC(=O)[C@H](CCN)NC(=O)[C@H](CC(C)C)NC(=O)[C@@H](CC(C)C)NC(=O)[C@H](CCN)NC(=O)[C@@H](NC(=O)[C@@H](CCN)NC(=O)CC[C@H]2NC(=O)[C@H](CCCN)NC(=O)[C@H](CCN)NC(=O)[C@H](Cc3ccc(O)cc3)NC(=O)[C@@H](NC(=O)[C@@H](O)C(C)C)CSSC[C@@H](C(=O)N[C@H](C(N)=O)[C@@H](C)O)NC(=O)[C@H](C(C)(C)C)NC(=O)[C@H](CO)NC(=O)[C@H](Cc3c[nH]c4ccccc34)NC(=O)[C@H]([C@@H](C)O)NC2=O)CCNC1=O [Ex. 165] (I: H-[Hiv]CY[Dab][Orn][dE]TWS[Tle]CT-NH2 / II: [dDab][Dab][Dab][dL]L[Dab][Dab]L; disulfide I:2-I:11; amide I:6-II:N; lactam II:2-II:C)	1 (≈ 0.447 µM)	0.5 (≈ 0.223 µM)	0.5 (≈ 0.223 µM)	4 (≈ 1.79 µM)	1 (≈ 0.447 µM)	0.25 (≈ 0.112 µM)	0.125 (≈ 0.0558 µM)	0.25 (≈ 0.112 µM)	<1
CC(C)C[C@@H]1NC(=O)[C@@H](CC(C)C)NC(=O)[C@H](CCN)NC(=O)[C@@H](NC(=O)[C@H](CN)NC(=O)[C@@H](NC(=O)[C@H](CCN)NC(=O)CC[C@@H]2NC(=O)[C@@H](CCN)NC(=O)CNC(=O)[C@H](CCN)NC(=O)[C@H](Cc3ccc(O)cc3)NC(=O)[C@@H](NC(=O)[C@@H](O)C(C)C)CSSC[C@@H](C(=O)N[C@H](C(N)=O)[C@@H](C)O)NC(=O)[C@H](C(C)(C)C)NC(=O)[C@H](CO)NC(=O)[C@H](Cc3c[nH]c4ccccc34)NC2=O)[C@@H](C)O)CCNC(=O)[C@H]([C@@H](C)O)NC(=O)[C@H](CCN)NC(=O)[C@H](CCN)NC1=O [Ex. 168] (I: H-[Hiv]CY[Dab]G[dDab]EWS[Tle]CT-NH2 / II: [Dab]T[Dap][Dab][Dab][dL]L[Dab][Dab]T; disulfide I:2-I:11; amide I:7-II:N; lactam II:4-II:C)	0.125 (≈ 0.0531 µM)	0.5 (≈ 0.212 µM)	0.25 (≈ 0.106 µM)	0.25 (≈ 0.106 µM)	0.125 (≈ 0.0531 µM)	0.0625 (≈ 0.0265 µM)	0.125 (≈ 0.0531 µM)	0.125 (≈ 0.0531 µM)	<1
CC(C)C[C@@H]1NC(=O)[C@@H](CC(C)C)NC(=O)[C@H](CCN)NC(=O)[C@@H](NC(=O)[C@H](CN)NC(=O)[C@@H](NC(=O)[C@H](CCN)NC(=O)CC[C@H]2NC(=O)[C@@H](CCN)NC(=O)CNC(=O)[C@H](CCN)NC(=O)[C@H](Cc3ccc(O)cc3)NC(=O)[C@@H](NC(=O)[C@@H](O)C(C)C)CSSC[C@@H](C(=O)N[C@H](C(N)=O)[C@@H](C)O)NC(=O)[C@H](C(C)(C)C)NC(=O)[C@H](CO)NC(=O)[C@H](Cc3c[nH]c4ccccc34)NC2=O)[C@@H](C)O)CCNC(=O)[C@H]([C@@H](C)O)NC(=O)[C@H](CCN)NC(=O)[C@H](CCN)NC1=O [Ex. 171] (I: H-[Hiv]CY[Dab]G[dDab][dE]WS[Tle]CT-NH2 / II: [Dab]T[Dap][Dab][Dab][dL]L[Dab][Dab]T; disulfide I:2-I:11; amide I:7-II:N; lactam II:4-II:C)	0.0625 (≈ 0.0265 µM)	0.5 (≈ 0.212 µM)	0.25 (≈ 0.106 µM)	0.5 (≈ 0.212 µM)	0.0625 (≈ 0.0265 µM)	0.125 (≈ 0.0531 µM)	0.125 (≈ 0.0531 µM)	0.125 (≈ 0.0531 µM)	<1
CC(C)C[C@@H]1NC(=O)[C@@H](CC(C)C)NC(=O)[C@H](CCN)NC(=O)[C@@H](NC(=O)[C@H](CN)NC(=O)[C@@H](NC(=O)[C@H](CCN)NC(=O)CC[C@@H]2NC(=O)[C@@H](CCN)NC(=O)[C@H](CCCN)NC(=O)[C@H](CCN)NC(=O)[C@H](Cc3ccc(O)cc3)NC(=O)[C@@H](NC(=O)[C@@H](O)C(C)C)CSSC[C@@H](C(=O)NC(CO)CO)NC(=O)[C@H](C(C)(C)C)NC(=O)[C@H](CO)NC(=O)[C@H](Cc3c[nH]c4ccccc34)NC2=O)[C@@H](C)O)CCNC(=O)[C@H]([C@@H](C)O)NC(=O)[C@H](CCN)NC(=O)[C@H](CCN)NC1=O [Ex. 172] (I: H-[Hiv]CY[Dab][Orn][dDab]EWS[Tle]C-{NHCH(CH2OH)2} / II: [Dab]T[Dap][Dab][Dab][dL]L[Dab][Dab]T; disulfide I:2-I:11; amide I:7-II:N; lactam II:4-II:C)	0.125 (≈ 0.0524 µM)	0.5 (≈ 0.21 µM)	0.25 (≈ 0.105 µM)	0.25 (≈ 0.105 µM)	0.125 (≈ 0.0524 µM)	0.125 (≈ 0.0524 µM)	0.25 (≈ 0.105 µM)	0.125 (≈ 0.0524 µM)	<1

Further lines, with some results ahead:

MIC [1] [µg/mL]	MIC [2] [µg/mL]	MIC [3] [µg/mL]	MIC [4] [µg/mL]	MIC [5] [µg/mL]	MIC [6] [µg/mL]	MIC (Escherichia coli 926415) [µg/mL]	MIC [7] [µg/mL]	Compound	Hemolysis at 200 μg/mL [8] [%]
0.25 (≈ 0.1 µM)	0.5 (≈ 0.2 µM)	0.125 (≈ 0.0501 µM)	0.125 (≈ 0.0501 µM)	0.0625 (≈ 0.025 µM)	0.0625 (≈ 0.025 µM)	0.25 (≈ 0.1 µM)	0.125 (≈ 0.0501 µM)	CC(=O)N[C@H](C(=O)N[C@H]1CSSC[C@@H](C(=O)N[C@@H](CO)C(N)=O)NC(=O)[C@H](C(C)(C)C)NC(=O)[C@H](CCC(=O)O)NC(=O)[C@H](Cc2c[nH]c3ccccc23)NC(=O)[C@H](CCO)NC(=O)[C@@H](CCN)NC(=O)[C@H](CCC(=O)N[C@@H](CCN)C(=O)N[C@H](C(=O)N[C@@H](CN)C(=O)N[C@H]2CCNC(=O)[C@H]([C@@H](C)O)NC(=O)[C@H](CCN)NC(=O)[C@H](CCN)NC(=O)[C@H](CC(C)C)NC(=O)[C@@H](CC(C)C)NC(=O)[C@H](CCN)NC2=O)[C@@H](C)O)NC(=O)[C@H](CCCCN)NC(=O)[C@H](Cc2ccc(O)cc2)NC1=O)C(C)C [Ex. 159] (I: Ac-VCYKE[dDab][hSer]WE[Tle]CS-NH2 / II: [Dab]T[Dap][Dab][Dab][dL]L[Dab][Dab]T; disulfide I:2-I:11; amide I:5-II:N; lactam II:4-II:C)	<1
0.5 (≈ 0.207 µM)	0.5 (≈ 0.207 µM)	0.25 (≈ 0.104 µM)	2 (≈ 0.829 µM)	0.125 (≈ 0.0518 µM)	0.125 (≈ 0.0518 µM)	0.5 (≈ 0.207 µM)	0.25 (≈ 0.104 µM)	CC(C)C[C@@H]1NC(=O)[C@@H](CC(C)C)NC(=O)[C@H](CCN)NC(=O)[C@@H](NC(=O)[C@H](CN)NC(=O)[C@@H](NC(=O)[C@H](CCN)NC(=O)CC[C@@H]2NC(=O)[C@H](CCCN)NC(=O)[C@H](CCN)NC(=O)[C@H](Cc3ccc(O)cc3)NC(=O)[C@@H](NC(=O)[C@@H](O)C(C)C)CSSC[C@@H](C(=O)N[C@H](C(N)=O)[C@@H](C)O)NC(=O)[C@H](C(C)(C)C)NC(=O)[C@H](CO)NC(=O)[C@H](Cc3c[nH]c4ccccc34)NC(=O)[C@H]([C@@H](C)O)NC2=O)[C@@H](C)O)CCNC(=O)[C@H]([C@@H](C)O)NC(=O)[C@H](CCN)NC(=O)[C@H](CCN)NC1=O [Ex. 160] (I: H-[Hiv]CY[Dab][Orn]ETWS[Tle]CT-NH2 / II: [Dab]T[Dap][Dab][Dab][dL]L[Dab][Dab]T; disulfide I:2-I:11; amide I:6-II:N; lactam II:4-II:C)	<1
0.125 (≈ 0.0534 µM)	2 (≈ 0.854 µM)	0.5 (≈ 0.213 µM)	4 (≈ 1.71 µM)	0.0625 (≈ 0.0267 µM)	0.125 (≈ 0.0534 µM)	0.25 (≈ 0.107 µM)	0.125 (≈ 0.0534 µM)	CC(C)C[C@@H]1NC(=O)[C@@H](CC(C)C)NC(=O)[C@H](CCN)NC(=O)[C@@H](NC(=O)[C@H](CN)NC(=O)[C@@H](NC(=O)[C@H](CCN)NC(=O)CC[C@@H]2NC(=O)CNC(=O)[C@H](CCCN)NC(=O)[C@H](CCN)NC(=O)[C@H](Cc3ccc(O)cc3)NC(=O)[C@@H](NC(=O)[C@@H](O)C(C)C)CSSC[C@@H](C(=O)NC(CO)CO)NC(=O)[C@H](C(C)(C)C)NC(=O)[C@H](CO)NC(=O)[C@H](Cc3c[nH]c4ccccc34)NC2=O)[C@@H](C)O)CCNC(=O)[C@H]([C@@H](C)O)NC(=O)[C@H](CCN)NC(=O)[C@H](CCN)NC1=O [Ex. 173] (I: H-[Hiv]CY[Dab][Orn]GEWS[Tle]C-{NHCH(CH2OH)2} / II: [Dab]T[Dap][Dab][Dab][dL]L[Dab][Dab]T; disulfide I:2-I:11; amide I:7-II:N; lactam II:4-II:C)	<1
